The values that follow are results of earlier work, collected in publication PMC4484741 (Nuclear medicine and biology, 2011).

For one data set, the target named is GLP-1 receptor. The settings on record: read-out: Kd, affinity to GLP-1 receptor.
The test system of another data set is pancreatic BCM. The settings on record: rats, PET.

Where two headings read alike, the source gives them in different places.

Regarding “GLP-1: endogenous ligand of the GLP-1 receptor”, the half-life in vivo (fast degradation by dipeptidyl peptidase-4) was 1 to 2 min. As to “Exendin-4: 39-amino acid peptide hormone from Gila monster saliva, agonist of GLP-1 receptor”, the half-life in vivo entry is listed as “about 2.4 h”. For orientation: Kd means the equilibrium constant for the complex coming apart. For “Exendin (9-39): truncated version of exendin-4, antagonist of GLP-1 receptor”, the Kd at GLP-1 receptor was ~3 nM. For the compound `COc1cc2c(cc1OCCC[18F])CCN1C[C@@H](CC(C)C)[C@H](O)C[C@H]21` [[^18F]FP-DTBZ], in the data set with pancreatic BCM, the “Time within which liver and pancreas uptake rose to a plateau” value is ≤ 15 min. Consider `COc1cc2c(cc1O[11CH3])CCN1CC(CC(C)C)C(O)CC21` (centres unmarked) [[^11C]DTBZ], for which, in the data set on pancreatic BCM, the “Time within which liver and pancreas uptake rose to a plateau” value is ≤ 15 min.
